Experimental data as given in US20140378454A1, “NOVEL METHODS” (XSPRAY MICROPARTICLES AB, priority 2012, published 2014).
Structures can show the parent of a compound that is named as a salt.

How the values were obtained:
[1] = Dissolution measurement assay (apparent solubility) in FeSSIF, pH 5; format: physicochemical; conditions: for Conc (mg/L) 5 min: 5 minutes dissolution; for Conc (mg/L) 90 min: 90 minutes dissolution
Description: The method consists of adding the wished amount of powder of hybrid nanoparticles into a glass vial and then pouring in it the appropriate medium (typically FaSSIF, FeSSIF or SGF). The medium was prepared in accordance with the manufacturer's instructions. The amount of powder added depends on the wished “total PKI concentration”. […] For other experiments, the drug load was first estimated by HPLC and the amount of powder to obtain the drug concentration was calculated.
Typically, the powder was added in a 8 mL glass bottle and 7 mL of solution was added (typically FaSSIF, FeSSIF or SGF). The glass bottle was put on a shaker (approximately 1 rotation per minute) for dissolution. Samples of 500 μl where taken after different times, and subsequently centrifuged at approximately 15000 g for 3 minutes. The resulting supernatant was then analyzed by HPLC (C18 column Eclipse, 4.6 mm×15 cm, 1 mL/min, detection at 254-400 nM. Generally samples were taken after 5, 30 and 90 min and eventually 150 min.
A number of experiments were carried out, wherein nilotinib base or nilotinib HCl represented the protein kinase inhibitor. The experiments were carried out by measuring concentration of solubilized PKI (mg/L) after 5, 30 and 90 minutes dissolution in a solution at about pH 6.5, namely FaSSIF (Fasted State Simulated Intestinal Fluid). […] Samples of the solution were taken at various time intervals and the amount of protein kinase inhibitor was measured by the dissolution measurement assay described above.

[2] = In vivo measurement of plasma levels of nilotinib after oral (or iv) administration, neutralized or acidified stomach; set-up: species or system beagle dogs; conditions: constant rate IV infusion of 1 mg/kg, solution 0.2 mg/mL in 10% HPβCD, male dogs, Mean±SD
Description: Outliers were calculated and excluded based on if one value is a significant outlier from the rest at 95% confidence intervals (alpha=5%) according to Grubb's test. The critical Z value for the Grubb's test at the 95% confidence interval with n=4 is 1.48. Z=(Mean−Questionable value)/SD

[3] = concentration of nilotinib HCl, FeSSIF solution (pH 5)
[4] = concentration of erlotinib HCl, FeSSIF solution (pH 5)

Cc1cn(-c2cc(NC(=O)c3ccc(C)c(Nc4nccc(-c5cccnc5)n4)c3)cc(C(F)(F)F)c2)cn1 [Exp 41, Nilotinib HCl]
Conc (mg/L) 5 min [1, 3]: 0.6 mg/L
Conc (mg/L) 30 min ([1]; concentration of nilotinib HCl, FeSSIF solution (pH 5), 30 minutes dissolution): 0.9 mg/L
Conc (mg/L) 90 min [1, 3]: 0.9 mg/L
% solubilized 30 min. ([1]; nilotinib HCl, FeSSIF solution (pH 5), 30 minutes dissolution): 0.18%
AUC/90 min Mg/min/L ([1]; nilotinib HCl, FeSSIF solution (pH 5), Area Under the Curve during 90 minutes dissolution): 74.3 Mg/min/L

Cc1cn(-c2cc(NC(=O)c3ccc(C)c(Nc4nccc(-c5cccnc5)n4)c3)cc(C(F)(F)F)c2)cn1 [Nilotinib]
AUC(0-t) ([2]; beagle, dog, plasma, read-out: AUC0-24 hr): 1 ± 0.3 µg·h/mL
half-life ([2]; beagle, dog, plasma, read-out: T½ (converted)): 3.3 ± 1.8 h
Co [2]: 511 ± 46 ng/mL

C#Cc1cccc(Nc2ncnc3cc(OCCOC)c(OCCOC)cc23)c1 [Exp 69, Erlotinib HCl]
Conc (mg/L) 5 min [1, 4]: 156.8 mg/L
Conc (mg/L) 30 min ([1]; concentration of erlotinib HCl, FeSSIF solution (pH 5), 30 minutes dissolution): 189.9 mg/L
Conc (mg/L) 90 min [1, 4]: 196 mg/L
% solubilized 30 min. ([1]; erlotinib HCl, FeSSIF pH 5, 30 min dissolution): 19.0%
AUC/90 min Mg/min/L ([1]; erlotinib HCl, FeSSIF pH 5, during 90 min dissolution): 16303 Mg/min/L
